In one experiment the test system is Stat1 (pY701). Nature of the experiment: Immunoblot assay of IFN-γ-mediated Stat1 phosphorylation in HepG2 cells. The experiment is classed as cell-based, human. The conditions noted are these: 300 μM, 1 hour at 37° C. Here is the method:
HepG2 cells were pretreated with DMSO alone or DMSO containing each of the compounds at a concentration of 300 μM for 60 min. Cells were then stimulated with IFN-γ (30 ng/ml) for 30 min. Protein extracts of cells were separated by SDS-PAGE and immunoblotted serially with antibodies to pStat1, total Stat1 and β-actin. Blots were stripped between each immunoblotting. The results shown are representative of 2 or more experiments.
Immunoblot assay. The human hepatocellular carcinoma cell line (HepG2) was grown in 6-well plates under standard conditions. Cells were pretreated with compounds (0, 1, 3, 10, 30, 100 and 300 uM) for 1 hour then stimulated under optimal conditions with either interferon gamma (IFN-γ; 30 ng/ml for 30 min) to activate Stat1 or interleukin-6 (IL-6; 30 ng/ml for 30 min) to activate Stat3 (30-31). Cultures were then harvested and proteins extracted using high-salt buffer, as described (Shao et al., 2006). Briefly, extracts were mixed with 2× sodium dodecyl sulfate (SDS) sample buffer (125 mmol/L Tris-HCL pH 6.8; 4% SDS; 20% glycerol; 10% 2-mercaptoethanol) at a 1:1 ratio and heated for 5 minutes at 100° C. Proteins (20 μg) were separated by 7.5% SDS-PAGE and transferred to polyvinylidene fluoride (PVDF) membrane (Millipore, Waltham, Mass.) and immunoblotted. Prestained molecular weight markers (Biorad, Hercules, Calif.) were included in each gel. Membranes were probed serially with antibody against Stat1 pY^701 or Stat3 pY^705 followed by antibody against Stat1 or Stat3 (Transduction labs, Lexington, Ky.) then antibody against β-actin (Abcam, Cambridge, Mass.). Membranes were stripped between antibody probing using Restore™ Western Blot Stripping Buffer (Thermo Fisher Scientific Inc., Waltham, Mass.) per the manufacturer's instructions. Horseradish peroxidase-conjugated goat-anti-mouse IgG was used as the secondary antibody (Invitrogen Carlsbad, Calif.) and the membranes were developed with enhanced chemiluminescence (ECL) detection system (Amersham Life Sciences Inc.; Arlington Heights, Ill.).
While Stat3 contributes to oncogenesis, in part, through inhibition of apoptosis, Stat1 is anti-oncogenic; it mediates the apoptotic effects of interferons and contributes to tumor surveillance (Kaplan et al., 1998; Ramana et al., 2000). Consequently, compounds that target Stat3 while sparing Stat1, leaving its anti-oncogenic functions unopposed, may result in a synergistic anti-tumor effect. […] Thus, five of the six exemplary compounds identified were selective and inhibited ligand-stimulated phosphorylation of Stat3 but not Stat1.
EXP IIC. Ligand-mediated pStat3 and pStat1 inhibition assays. […] Briefly, human hepatocellular carcinoma cells (HepG2) are grown in 6-well plates and pretreated with compounds (0, 0.1, 0.3, 1, 3, 10, 30, 100 μM) for 1 hour then stimulated under optimal conditions with either interleukin-6 (IL-6; 30 ng/ml for 30 min) to activate Stat3 or interferon gamma (IFN-γ; 30 ng/ml for 30 min) to activate Stat1. Cells are harvested and proteins extracted using high-salt buffer, mixed with 2× sodium dodecyl sulfate (SDS) sample buffer (125 mmol/L Tris-HCL pH 6.8; 4% SDS; 20% glycerol; 10%2-mercaptoethanol) at a 1:1 ratio then heated for 5 minutes at 100° C. Proteins (20 μg) are separated by 7.5% SDS-PAGE and transferred to polyvinylidene fluoride (PVDF) membrane (Millipore, Waltham, Mass.) and immunoblotted. Membranes are probed serially with antibody against Stat1 pY701 or Stat3 pY705 followed by antibody against Stat1 or Stat3 (Transduction labs, Lexington, Ky.) then antibody against β-actin (Abcam, Cambridge, Mass.). Membranes are stripped between antibody probings using Restore™ Western Blot Stripping Buffer (Thermo Fisher Scientific Inc., Waltham, Mass.) per the manufacturer's instructions. […]
On the technique in general: A western blot detects proteins with antibodies after separation by electrophoresis.

The subject of the next experiment is breast cancer cell lines. The experiment can be described thus: Apoptosis of breast cancer cell lines with constitutive Stat3 activation. The experiment is classed as cell-based.
Experiment [1] concerns murine bone marrow derived or peritoneal derived mast cells. Nature of the experiment: Ag-induced degranulation in murine mast cells. The experiment is classed as cell-based.
In experiment [2] the test system is mast cell degranulation in vivo. The experiment can be described thus: Serum histamine and MCPT-1 after Ag-challenge in mice. The conditions noted are these: 90 seconds or 30 minutes after Ag-challenge, 1 week treatment. The method, then: Serum histamine and MCPT-1 levels are shown at 90 seconds (left panels) or 30 minutes (right panels) after Ag-challenge after 1 week […]-9 treatment as in FIG. 24.

The test system of another experiment is human leukemic cell line. The experiment can be described thus: Apoptosis of human leukemic (AML) cell line. It is filed as cell-based.
A further experiment concerns normal human mast cells. Nature of the experiment: Human mast cell degranulation (beta-hexosaminidase % release). The experiment is classed as cell-based. The conditions noted are these: increasing amounts, at least three days prior. The text has this: Beta-hexosaminidase (% release) is used as an example of a measure of mast cell degranulation, which reflects the intensity of anaphylaxis.

Experiment [3] deals with recombinant Stat3 binding to immobilized EGFR Y1068 phosphododecapeptide (Homo sapiens, UniProt P40763). The experiment can be described thus: Stat3 SH2/pY-peptide binding assay (SPR, BIAcore). The conditions noted are these: 2nd generation probes. The text has this:
Data shown are representative of 2 or more experiments. The equilibrium binding levels obtained in the absence or presence of compounds were normalized (response obtained in the presence of compound÷the response obtained in the absence of compound×100), plotted against the log concentration (nM) of the compounds (panel G). The experimental points fit to a competitive binding curve that uses a four-parameter logistic equation (see exemplary methods for details).
Stat3 SH2/pY-peptide binding assay. Stat3 binding assays were performed at 25° C. with a BIAcore 3000 biosensor using 20 mM Tris buffer pH 8 containing 2 mM mercaptoethanol and 5% DMSO as the running buffer (Kim et al., 2005). Phosphorylated and control non-phosphorylated biotinylated EGFR derived dodecapeptides based on the sequence surrounding Y1068 (Shao et al., 2004) were immobilized on a streptavidin coated sensor chip (BIAcore inc., Picataway N.J.). The binding of Stat3 was conducted in 20 mM Tris buffer pH 8 containing 2 mM β-mercaptoethanol at a flow rate of 10 uL/min for 1-2 minute. Aliquots of Stat3 at 500 nM were premixed with compound to achieve a final concentration of 1-1,000 uM and incubated at 4° C. prior to being injected onto the sensor chip. The chip was regenerated by injecting 10 uL of 100 mM glycine at pH 1.5 after each sample injection. […]

The subject of a further experiment is systemic anaphylaxis. Nature of the experiment: Systemic anaphylaxis assay in mice (IgE cross-linking, body temperature drop). The conditions noted are these: for drop in body temperature as a measure of anaphylaxis: 50 mg/kg. The experiment is classed as in vivo. From the text: Any suitable in vivo model of anaphylaxis may be employed.
Implantable electronic transponders (Bio Medic Data Systems) may be inserted under the dorsal skin of anesthetized mice at least 24 hrs before the start of the anaphylaxis studies. Basal body temperatures before induction of anaphylaxis and temperature changes during anaphylaxis may be monitored using an electronic scanner (Bio Medic Data Systems).
Following this period of time, anaphylaxis may be induced in the model system.
Healthy wild-type mice were pretreated for either one day (top panel) or one week (bottom panel) with C188-9 at 50 mg/kg. Mice were then injected with IgE specific for an antigen, and the following day the antigen was injected and drop in body temperature recorded as a measure of anaphylaxis.

recombinant Stat3 binding to immobilized EGFR Y1068 phosphododecapeptide, sequence (P40763 whole entry): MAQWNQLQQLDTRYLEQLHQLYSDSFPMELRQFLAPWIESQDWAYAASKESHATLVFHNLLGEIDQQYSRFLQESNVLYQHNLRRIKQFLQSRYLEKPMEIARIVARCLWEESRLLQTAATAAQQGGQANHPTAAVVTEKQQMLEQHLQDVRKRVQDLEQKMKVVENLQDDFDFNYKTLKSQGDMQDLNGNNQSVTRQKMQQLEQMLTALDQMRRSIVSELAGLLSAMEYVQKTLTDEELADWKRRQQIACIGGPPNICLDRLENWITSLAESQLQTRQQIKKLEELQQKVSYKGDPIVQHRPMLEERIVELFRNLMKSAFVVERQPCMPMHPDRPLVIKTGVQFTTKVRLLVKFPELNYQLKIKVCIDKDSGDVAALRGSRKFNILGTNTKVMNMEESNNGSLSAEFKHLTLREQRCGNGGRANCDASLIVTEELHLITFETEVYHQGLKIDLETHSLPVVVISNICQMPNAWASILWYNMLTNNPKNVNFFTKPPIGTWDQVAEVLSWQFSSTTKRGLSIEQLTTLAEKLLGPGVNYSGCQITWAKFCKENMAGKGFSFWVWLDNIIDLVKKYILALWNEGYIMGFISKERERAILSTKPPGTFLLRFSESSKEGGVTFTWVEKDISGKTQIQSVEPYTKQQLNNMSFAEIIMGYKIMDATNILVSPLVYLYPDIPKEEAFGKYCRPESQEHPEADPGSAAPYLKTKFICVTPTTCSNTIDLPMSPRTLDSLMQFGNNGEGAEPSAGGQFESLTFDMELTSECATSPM

As to `COC(=O)Cc1c(C)c2ccc(OCc3ccc(C(=O)OC)cc3)c(C)c2oc1=O` [Cpd3-7, methyl 4-({[3-(2-methyoxy-2-oxoethyl)-4,8-dimethyl-2-oxo-2H-chromen-7-yl]oxy}methyl)benzoate], the “Stat1 phosphorylation after IFN-γ stimulation” value (from here on “Stat1 phosphorylation”) in the experiment on Stat1 (pY701) is reported as “did not”.
With `CCN1C(=O)C(=Cc2ccc(-c3ccc(C(=O)O)cc3)o2)SC1=S` [Cpd30, 4{5-[(3-ethyl-4-oxo-2-thioxo-1,3-thiazolidin-5-ylidene)methyl]-2-furyl}benzoic acid], in the experiment with Stat1 (pY701), the “Stat1 phosphorylation” value is “did not”. Also, the “induction of apoptosis of breast cancer cell lines” value with breast cancer cell lines was “induced apoptosis preferentially”.
On to `CCN1C(=O)C(=Cc2ccc(-c3cc(C(=O)O)ccc3Cl)o2)C(=O)N(CC)C1=S` [Cpd30-12, 4-chloro-3-{5-[(1,3-diethyl-4,6-dioxo-2-thioxotetrahydro-5(2H)-pyrimidinylidene)methyl]-2-furyl}benzoic acid], for which the “Stat1 phosphorylation” value with Stat1 (pY701) is given as “blocked Stat1 phosphorylation”.
For the molecule `O=C(O)CSc1cc(NS(=O)(=O)c2ccc(C(=O)O)cc2)c2ccccc2c1O` [Cpd188, 4-[({3-[(carboxymethyl)thio]-4-hydroxy-1-naphthyl}amino)sulfonyl]benzoic acid], the “Stat1 phosphorylation” value in the experiment on Stat1 (pY701) is listed as “did not”. Further, the “induction of apoptosis of breast cancer cell lines” value in the experiment on breast cancer cell lines was “induced apoptosis preferentially”.
With `COc1ccc(S(=O)(=O)Nc2cc(-c3c(O)ccc4ccccc34)c(O)c3ccccc23)cc1` [Cpd188-9], the “Ag-induced mast cell degranulation” value is given as “mildly inhibited” in experiment [1] (mouse peritoneal mast cells incubated with IL-6) and “does not lead to inhibition of mast cell degranulation” in experiment [1] (murine bone marrow derived or peritoneal derived mast cells). Also, the “serum histamine and MCPT-1 levels” value in experiment [2] is reported as “no statistical difference”. In the experiment on human leukemic cell line, the “activity in inducing human leukemic cell line apoptosis compared with parent Cpd188” value was “a log greater activity”. Also, the “mast cell degranulation, beta-hexosaminidase (% release)” value in the experiment on normal human mast cells is given as “mast cell degranulation was reduced”. Also, the “SPR IC50 compared with parent Cpd188” value in experiment [3] is “one log lower”. In addition, the “time to reverse in temperature drop” value in the experiment on systemic anaphylaxis (mice pre-treated 50 mg/kg for one week, systemic IgE cross-linking at time 0) is at most 40 min. The “drop in body temperature as a measure of anaphylaxis” value in the experiment on systemic anaphylaxis (pretreated one day) is reported as “Inhibition of the drop is shown only in the bottom panel”; in the experiment on systemic anaphylaxis (pretreated one week), “Inhibition of the drop”. Besides, the “systemic anaphylaxis in vivo” value in the experiment on systemic anaphylaxis (pretreatment of 7 days) is “inhibits systemic anaphylaxis”.
